Numbers after ± are expanded uncertainties.
Assay: molar heat capacity at constant pressure
Details: 101.33 kPa

O=P([O-])([O-])[O-].[Co+2].[Cs+] [cesium cobalt(II) phosphate]
Details | molar heat capacity at constant pressure [J/K/mol]
304.98 K, Crystal 4, Vacuum adiabatic calorimetry | 136.11 ± 0.5
305.47 K, Crystal 4, Vacuum adiabatic calorimetry | 136.19 ± 0.5
306.97 K, Crystal 4, Vacuum adiabatic calorimetry | 137.44 ± 0.5
307.51 K, Crystal 4, Vacuum adiabatic calorimetry | 137.6 ± 0.5
308.95 K, Crystal 4, Vacuum adiabatic calorimetry | 138.69 ± 0.5
309.32 K, Crystal 4, Vacuum adiabatic calorimetry | 139.1 ± 0.5
310 K, Crystal 4, Vacuum adiabatic calorimetry | 136.94 ± 0.5
310.91 K, Crystal 4, Vacuum adiabatic calorimetry | 142.43 ± 0.5
311.46 K, Crystal 4, Vacuum adiabatic calorimetry | 142.34 ± 0.5
312.84 K, Crystal 4, Vacuum adiabatic calorimetry | 144.42 ± 0.5
313.4 K, Crystal 3, Vacuum adiabatic calorimetry | 139.93 ± 0.5
313.4 K, Crystal 4, Vacuum adiabatic calorimetry | 137.85 ± 0.5
313.44 K, Crystal 3, Vacuum adiabatic calorimetry | 144.34 ± 0.5
314.77 K, Crystal 3, Vacuum adiabatic calorimetry | 143.84 ± 0.5
315.42 K, Crystal 3, Vacuum adiabatic calorimetry | 144.09 ± 0.5
316.69 K, Crystal 3, Vacuum adiabatic calorimetry | 142.51 ± 0.5
317.39 K, Crystal 3, Vacuum adiabatic calorimetry | 143.18 ± 0.5
318.6 K, Crystal 3, Vacuum adiabatic calorimetry | 141.68 ± 0.5
319.35 K, Crystal 3, Vacuum adiabatic calorimetry | 142.51 ± 0.5
320 K, Crystal 3, Vacuum adiabatic calorimetry | 142.34 ± 0.5
320.51 K, Crystal 3, Vacuum adiabatic calorimetry | 142.01 ± 0.5
321.31 K, Crystal 3, Vacuum adiabatic calorimetry | 142.84 ± 0.5
322.4 K, Crystal 3, Vacuum adiabatic calorimetry | 142.76 ± 0.5
323.26 K, Crystal 3, Vacuum adiabatic calorimetry | 143.42 ± 0.5
324.27 K, Crystal 3, Vacuum adiabatic calorimetry | 143.42 ± 0.5
325.2 K, Crystal 3, Vacuum adiabatic calorimetry | 144.09 ± 0.5
326.14 K, Crystal 3, Vacuum adiabatic calorimetry | 144.09 ± 0.5
327.14 K, Crystal 3, Vacuum adiabatic calorimetry | 144.59 ± 0.5
327.98 K, Crystal 3, Vacuum adiabatic calorimetry | 144.75 ± 0.5
329.07 K, Crystal 3, Vacuum adiabatic calorimetry | 145.09 ± 0.5
330 K, Crystal 3, Vacuum adiabatic calorimetry | 145.34 ± 0.5
330.98 K, Crystal 3, Vacuum adiabatic calorimetry | 145.59 ± 0.5
332.87 K, Crystal 3, Vacuum adiabatic calorimetry | 146 ± 0.5
334.4 K, Crystal 3, Small sample (50 mg) DSC | 146.33 ± 4.2
334.77 K, Crystal 3, Vacuum adiabatic calorimetry | 146.58 ± 0.5
336.65 K, Crystal 3, Vacuum adiabatic calorimetry | 147.08 ± 0.5
336.9 K, Crystal 3, Small sample (50 mg) DSC | 147.17 ± 4.2
338.52 K, Crystal 3, Vacuum adiabatic calorimetry | 147.5 ± 0.5
339.4 K, Crystal 3, Small sample (50 mg) DSC | 148 ± 4.2
340 K, Crystal 3, Vacuum adiabatic calorimetry | 147.91 ± 0.5
340.21 K, Crystal 3, Vacuum adiabatic calorimetry | 148 ± 0.5
341.82 K, Crystal 3, Vacuum adiabatic calorimetry | 148.41 ± 0.5
341.9 K, Crystal 3, Small sample (50 mg) DSC | 148 ± 4.2
343.88 K, Crystal 3, Vacuum adiabatic calorimetry | 149.08 ± 0.5
344.4 K, Crystal 3, Small sample (50 mg) DSC | 148.83 ± 4.2
345.68 K, Crystal 3, Vacuum adiabatic calorimetry | 149.58 ± 0.5
346.9 K, Crystal 3, Small sample (50 mg) DSC | 149.66 ± 4.2
347.49 K, Crystal 3, Vacuum adiabatic calorimetry | 150.08 ± 0.5
349.26 K, Crystal 3, Vacuum adiabatic calorimetry | 150.49 ± 0.5
349.4 K, Crystal 3, Small sample (50 mg) DSC | 150.49 ± 4.2
350 K, Crystal 3, Small sample (50 mg) DSC | 150.41 ± 4.3
351.9 K, Crystal 3, Small sample (50 mg) DSC | 151.32 ± 4.2
354.4 K, Crystal 3, Small sample (50 mg) DSC | 151.32 ± 4.2
356.9 K, Crystal 3, Small sample (50 mg) DSC | 152.15 ± 4.2
359.4 K, Crystal 3, Small sample (50 mg) DSC | 152.99 ± 4.2
360 K, Crystal 3, Small sample (50 mg) DSC | 152.74 ± 4.4
361.9 K, Crystal 3, Small sample (50 mg) DSC | 152.99 ± 4.2
364.4 K, Crystal 3, Small sample (50 mg) DSC | 152.99 ± 4.2
366.9 K, Crystal 3, Small sample (50 mg) DSC | 153.82 ± 4.2
369.4 K, Crystal 3, Small sample (50 mg) DSC | 154.65 ± 4.2
370 K, Crystal 3, Small sample (50 mg) DSC | 154.82 ± 4.4
371.9 K, Crystal 3, Small sample (50 mg) DSC | 155.48 ± 4.2
374.4 K, Crystal 3, Small sample (50 mg) DSC | 155.48 ± 4.2
376.9 K, Crystal 3, Small sample (50 mg) DSC | 156.31 ± 4.2
379.4 K, Crystal 3, Small sample (50 mg) DSC | 156.31 ± 4.2
380 K, Crystal 3, Small sample (50 mg) DSC | 156.73 ± 4.5
381.9 K, Crystal 3, Small sample (50 mg) DSC | 157.14 ± 4.2
384.4 K, Crystal 3, Small sample (50 mg) DSC | 157.14 ± 4.2
386.9 K, Crystal 3, Small sample (50 mg) DSC | 157.97 ± 4.2
389.4 K, Crystal 3, Small sample (50 mg) DSC | 157.97 ± 4.2
390 K, Crystal 3, Small sample (50 mg) DSC | 158.47 ± 4.6
391.9 K, Crystal 3, Small sample (50 mg) DSC | 158.81 ± 5
394.4 K, Crystal 3, Small sample (50 mg) DSC | 159.64 ± 5
396.9 K, Crystal 3, Small sample (50 mg) DSC | 159.64 ± 5
399.4 K, Crystal 3, Small sample (50 mg) DSC | 160.47 ± 5
400 K, Crystal 3, Small sample (50 mg) DSC | 160.14 ± 4.6
401.9 K, Crystal 3, Small sample (50 mg) DSC | 160.47 ± 5
404.4 K, Crystal 3, Small sample (50 mg) DSC | 161.3 ± 5
406.9 K, Crystal 3, Small sample (50 mg) DSC | 161.3 ± 5
409.4 K, Crystal 3, Small sample (50 mg) DSC | 161.3 ± 5
410 K, Crystal 3, Small sample (50 mg) DSC | 161.72 ± 4.7
411.9 K, Crystal 3, Small sample (50 mg) DSC | 162.13 ± 5
414.4 K, Crystal 3, Small sample (50 mg) DSC | 162.13 ± 5
416.9 K, Crystal 3, Small sample (50 mg) DSC | 162.96 ± 5
419.4 K, Crystal 3, Small sample (50 mg) DSC | 162.96 ± 5
420 K, Crystal 3, Small sample (50 mg) DSC | 163.13 ± 4.7
421.9 K, Crystal 3, Small sample (50 mg) DSC | 162.96 ± 5
424.4 K, Crystal 3, Small sample (50 mg) DSC | 163.8 ± 5
426.9 K, Crystal 3, Small sample (50 mg) DSC | 163.8 ± 5
429.4 K, Crystal 3, Small sample (50 mg) DSC | 164.63 ± 5
430 K, Crystal 3, Small sample (50 mg) DSC | 164.54 ± 4.7
431.9 K, Crystal 3, Small sample (50 mg) DSC | 164.63 ± 5
434.4 K, Crystal 3, Small sample (50 mg) DSC | 165.46 ± 5
436.9 K, Crystal 3, Small sample (50 mg) DSC | 165.46 ± 5
439.4 K, Crystal 3, Small sample (50 mg) DSC | 166.29 ± 5
440 K, Crystal 3, Small sample (50 mg) DSC | 165.96 ± 4.7
441.9 K, Crystal 3, Small sample (50 mg) DSC | 166.29 ± 5
444.4 K, Crystal 3, Small sample (50 mg) DSC | 167.12 ± 5
446.9 K, Crystal 3, Small sample (50 mg) DSC | 167.12 ± 5
449.4 K, Crystal 3, Small sample (50 mg) DSC | 167.12 ± 5
450 K, Crystal 3, Small sample (50 mg) DSC | 167.45 ± 4.8
